From paper PMC11770101, “Nonenzymatic lysine D-lactylation induced by glyoxalase II substrate SLG dampens inflammatory immune responses” (Cell Research, 2025)

Target: T1, glyoxalase II (GLO2) (Mus musculus, UniProt Q99KB8)
T1 construct: gene Hagh
Assay: LC-MS quantification of accumulated GLO2 substrate SLG in BMDMs treated with […] DiFMOC-G for […] h
Assay type: cell-based

O=C(O)CNC(=O)[C@H](CSC(=O)OCC1c2ccccc2-c2ccccc21)NC(=O)CC[C@H](NC(=O)OCC1c2ccccc2-c2ccccc21)C(=O)O [DiFMOC-G]
LC-MS quantification of accumulated GLO2 substrate SLG in BMDMs treated with 0.4: treatment with DiFMOC-G could dramatically induce SLG accumulation (Fig. 4e), recapitulating changes observed during macrophage activation
